As usually defined, the ED50 is the midpoint of the dose-response relation. A word on the Ki: it is a dissociation constant, usually derived from enzyme kinetics or from competition with a known ligand.

Read-outs that look alike come from different tables or passages of the source. A value given as a limit tells only on which side of the number the result lay.

Experiment [1] has as its system rhythmic bladder voiding contractions. The experiment can be described thus: Volume-induced rhythmic bladder voiding contractions in anaesthetized rats. It is filed as in vivo, rat. As to conditions: intravenous administration, anaesthetized rats; for ED50: Rattus norvegicus, extrapolated dose inducing a reduction of the number of contractions >30% in 50% of treated rats, read-out: ED50 (frequency); for ED10min: extrapolated dose inducing 10 min of disappearance of the contractions. The method, then:
Female Sprague Dawley rats weighing 225-275 g (Crl: CDo BR, Charles River Italia) were used. The animals were housed with free access to food and water and were maintained on a forced 12 h alternating light-dark cycle at 22-24° C. for at least one week, except during the experiment. The activity on the rhythmic bladder voiding contractions was evaluated according to the method of Dray (J. Pharmacol. Methods, 13:157, 1985), with some modifications as in Guarneri (Pharmacol. Res., 27:173, 1993). Briefly, rats were anesthetized by subcutaneous injection of 1.25 g/kg (5 ml/kg) urethane, after which the urinary bladder was catheterized via the urethra using PE 50 polyethylene tubing filled with physiological saline. The catheter was tied in place with a ligature around the external urethral orifice and was connected with conventional pressure transducers (Statham P23 ID/P23 XL). […] The bladder was then filled via the recording catheter by incremental volumes of warm (37° C.) saline until reflex bladder voiding contractions occurred (usually 0.8-1.5 ml). For intravenous (i.v.) injection of bioactive compounds, PE 50 polyethylene tubing filled with physiological saline was inserted into the jugular vein.
From the cystometrogram, the number of contractions recorded 15 min before (basal values) and after treatment, as well as the mean amplitude of these contractions (mean height of the peaks in mm Hg) was evaluated.
Since most compounds produced an effect that was relatively rapid in onset and led to a complete cessation of bladder contractions, bioactivity was conveniently estimated by measuring the duration of bladder quiescence (i.e., the duration of time during which no contractions occurred). Moreover, the number of animals tested showing a reduction in the number of contractions >30% of that observed in the basal period, was recorded. […] Also computed in this manner were extrapolated doses which induced a reduction of the number of contractions of greater than 30% in 50% of treated rats (ED50, frequency) by the method of Bliss (Bliss C. I., Quart. J. Pharm. Pharmacol. 11, 192-216, 1938). After the suppressive effects of drug injection wore off, the height of the contractile peaks was compared with the height of the peaks previously recorded after the control intravenous administration of vehicle. The potency of the tested compounds (ED50 value, the extrapolated doses inducing a 30% reduction of amplitude of the contractions in 50% of treated rats) was evaluated on a quantal basis by the method of Bliss (Bliss C. I., Quart. J. Pharm. Pharmacol. 11, 192-216, 1938).

The target of experiment [2] is T1, 5-HT2A serotonergic receptors (Rattus norvegicus, UniProt P14842).
T1 construct: from tissue; host or cells: cerebral cortex of male Sprague Dawley rats, membranes
Put plainly: Radioreceptor binding to native 5-HT2A serotonergic receptors ([3H]ketanserin, rat cerebral cortex membranes). The settings on record: rat cerebral cortex membranes, [3H]ketanserin; read-out: Ki 5-HT2A. Here is the method:
Binding studies on native 5-HT2A serotonergic receptors (Craig A. and Kenneth J., Life Sci. 38, 117-127, 1986) were carried out in membranes of rat cerebral cortex. Male Sprague Dawley rats (200-300 g, S D Harlan/Nossan, Italy) were killed by cervical dislocation and cerebral cortexes were excised and immediately frozen in liquid nitrogen and stored at −70° C. until use. Tissues were homogenized (2×20 sec) in 50 volumes of cold 50 mM Tris-HCl buffer pH 7.4, using a Polytron homogenizer (speed 7). Homogenates were centrifuged at 49000×g for 10 min, resuspended in 50 volumes of the same buffer, incubated at 37° C. for 15 min and centrifuged and resuspended twice more. The final pellets were suspended in 100 volumes of 50 mM Tris-HCl buffer pH 7.7. Membranes were incubated in a final volume of 1 ml for 20 min at 37° C. with 0.7-1.3 nM [^3H]ketanserin (5-HT2A receptors), in absence or presence of competing drugs. Non-specific binding was determined in the presence of 2 μM ketanserin. The incubation was stopped by addition of ice-cold 50 mM Tris-HCl buffer and rapid filtration through 0.2% polyethyleneimine pretreated Whatman GF/B or Schleicher & Schuell GF52 filters. The filters are then washed with ice-cold buffer and the radioactivity retained on the filters was counted by liquid scintillation spectrometry.
(§1) The inhibition of specific binding of the radioligands by the tested drugs was analyzed to estimate the IC50 value by using the non-linear curve-fitting program Allfit (De Lean et al., Am. J. Physiol. 235, E97-E102, 1978). The IC50 value is converted to an affinity constant (Ki) by the equation of Cheng & Prusoff (Cheng, Y. C.; Prusoff, W. H. Biochem. Pharmacol. 22, 3099-3108, 1973).

In the next experiment the target is α1 adrenergic receptors. The experiment can be described thus: Radioreceptor binding to native α1 adrenergic receptors ([3H]prazosin, rat cerebral cortex membranes). The method, then: Binding studies on native α1 adrenergic receptors were carried out in membranes of rat cerebral cortex. Male Sprague Dawley rats (200-300 g, Charles River, Italy) were killed by cervical dislocation and cerebral cortexes were dissected and immediately frozen and stored at −70° C. until use. Tissue was homogenized (2×20 sec) in 50 volumes of cold 50 mM Tris-HCl buffer pH 7.4, using a Polytron homogenizer (speed 7). Homogenates were centrifuged at 48000×g for 10 min, resuspended in 50 volumes of the same buffer, incubated at 37° C. for 15 min and centrifuged and resuspended twice more. The final pellets were suspended in 100 volumes of 50 mM Tris-HCl buffer pH 7.4, containing 10 μM pargyline and 0.1% ascorbic acid. Membranes were incubated in a final volume of 1 ml for 30 min at 25° C. with 0.1-0.5 nM [^3H]prazosin, in the absence or presence of competing drugs; non-specific binding was determined in the presence of 10 μM phentolamine.
The incubation was stopped by addition of ice-cold 50 mM Tris-HCl buffer and rapid filtration through 0.2% polyethyleneimine-pretreated Whatman GF/B or Schleicher & Schuell GF52 filters. The filters were then washed with ice-cold buffer and the radioactivity retained on the filters counted by liquid scintillation spectrometry.
as §1

The target of experiment [3] is T2, human 5-HT1A serotonergic receptor (Homo sapiens, UniProt P08908).
T2 construct: expressed in transfected cells; host or cells: HeLa (human), stably transfected; cell membranes
T2 sequence (P08908 1-422): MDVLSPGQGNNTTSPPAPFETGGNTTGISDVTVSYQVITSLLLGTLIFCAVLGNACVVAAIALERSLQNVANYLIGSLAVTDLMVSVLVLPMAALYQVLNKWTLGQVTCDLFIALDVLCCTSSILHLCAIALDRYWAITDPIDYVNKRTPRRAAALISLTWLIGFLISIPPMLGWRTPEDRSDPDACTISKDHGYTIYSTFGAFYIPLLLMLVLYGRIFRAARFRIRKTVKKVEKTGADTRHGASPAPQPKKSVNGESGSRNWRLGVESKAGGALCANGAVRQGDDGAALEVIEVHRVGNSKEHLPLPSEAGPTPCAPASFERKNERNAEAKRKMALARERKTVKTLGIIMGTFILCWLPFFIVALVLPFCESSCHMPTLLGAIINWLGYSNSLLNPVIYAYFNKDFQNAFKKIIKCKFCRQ
The experiment can be described thus: Radioreceptor binding to recombinant human 5-HT1A receptors ([3H]8-OH-DPAT, HeLa cell membranes). The method, then:
Genomic clone G-21 coding for the human 5-HT1A serotonergic receptor is stably transfected in a human cell line (HeLa). HeLa cells were grown as monolayers in Dulbecco's modified Eagle's medium (DMEM), supplemented with 10% fetal calf serum and gentamicin ([…]), 5% CO2 at 37° C. Cells were detached from the growth flask at 95% confluence by a cell scraper and were lysed in ice-cold 5 mM Tris and 5 mM EDTA buffer (pH 7.4). Homogenates were centrifuged at 40000×g×20 min and pellets were resuspended in a small volume of ice-cold 5 mM Tris and 5 mM EDTA buffer (pH 7.4) and immediately frozen and stored at −70° C. until use. On the day of experiment, cell membranes were resuspended in binding buffer: 50 mM Tris HCl (pH 7.4), 2.5 mM MgCl2, 10 μM pargyline (Fargin et al., Nature 335, 358-360, 1988). Membranes were incubated in a final volume of 1 ml for 30 min at 30° C. with 0.2-1 nM [^3H]8-OH-DPAT, in absence or presence of competing drugs; non-specific binding was determined in the presence of 10 μM 5-HT. The incubation was stopped by addition of ice-cold Tris-HCl buffer and rapid filtration through 0.2% polyethyleneimine-pretreated Whatman GF/B or Schleieher & Schuell GF52 filters.
as §1

The mark [4] stands for this setting: recombinant human receptor in HeLa membranes, [3H]8-OH-DPAT, read-out: Ki 5-HT1A.

T1 sequence (P14842 whole entry): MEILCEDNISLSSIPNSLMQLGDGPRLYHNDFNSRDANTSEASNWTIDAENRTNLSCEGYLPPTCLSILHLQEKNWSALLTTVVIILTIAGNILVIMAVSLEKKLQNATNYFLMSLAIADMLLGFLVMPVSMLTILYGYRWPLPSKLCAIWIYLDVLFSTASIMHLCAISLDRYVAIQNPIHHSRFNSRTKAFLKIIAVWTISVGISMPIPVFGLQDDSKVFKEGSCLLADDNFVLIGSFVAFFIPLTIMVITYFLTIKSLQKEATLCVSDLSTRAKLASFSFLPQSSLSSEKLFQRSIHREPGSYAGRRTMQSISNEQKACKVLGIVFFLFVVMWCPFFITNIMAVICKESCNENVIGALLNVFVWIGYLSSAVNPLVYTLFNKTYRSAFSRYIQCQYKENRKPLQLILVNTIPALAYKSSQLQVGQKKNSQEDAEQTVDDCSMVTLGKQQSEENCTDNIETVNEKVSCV

For `COc1ccccc1N1CCN(CCC(c2ccccc2)c2ccccn2)CC1` (stereo not drawn) [Ex. 9, 1-[3-phenyl-3-(2-pyridyl)propyl]-4-(2-methoxyphenyl)piperazine], the ED50 in experiment [1] is 0.025 mg/kg. Further, the ED10min in experiment [1] is 0.077 mg/kg. For the same compound, the inhibition constant Ki in experiment [2] turned out to be 1020 nM; at α1 adrenergic receptors, 268 nM; in experiment [3] (setting [4]) it was 0.62 nM.
In the case of `COc1ccccc1N1CCN(CCC(O)(c2ccccn2)c2ccccn2)CC1` [Ex. 14, 1-[3-hydroxy-3,3-bis-(2-pyridyl)propyl]-4-(2-methoxyphenyl)piperazine], in experiment [1], the ED50 was 0.036 mg/kg. Moreover, the ED10min in experiment [1] is 0.127 mg/kg. In addition, the figures for the Ki (in experiment [2]; at α1 adrenergic receptors; in experiment [3] (setting [4])) were greater than 1000 nM, 114 nM and 0.34 nM, respectively.
Regarding `COc1ccccc1N1CCN(CCC(C(N)=O)(c2ccccc2)c2ccccn2)CC1` (stereo not drawn) [Ex. 10, 1-[3-aminocarbonyl-3-phenyl-3-(2-pyridyl)propyl]-4-(2-methoxyphenyl)piperazine], the ED50 in experiment [1] was 0.18 mg/kg. In addition, the ED10min in experiment [1] was 0.228 mg/kg. For the same compound, the Ki in experiment [2] was found to be 683 nM; on α1 adrenergic receptors, 1320 nM; in experiment [3], 19.3 nM.

Values taken from US6894052B1, “Diarylalkylpiperazines active on the lower urinary tract” (Recordati S.A. Chemical and Pharmaceutical Company, priority 1997, dated 2005).
